Assay results from patent publication US20150344426A1, “COMPOUNDS AND THERAPEUTIC USES THEREOF” (ALZHEIMER'S INSTITUTE OF AMERICA, INC., priority 2012, published 2015).
Values joined by “and” are separate entries in the source; they are usually repeats but may differ in a detail not shown here. Identical values can stand only once. Like-named read-outs stand apart in the source and are kept apart here.

Columns and labels:
[1] = Stability in mouse plasma; format: in vitro ADME; conditions: read-out: Mouse Plasma t1/2
Experimental: (§1) Relative stability of Example Compound Nos. 1 through 60 in mouse plasma and mouse liver microsomal preparations.
(§2) Certain Example Compounds were each added to a final concentration of 1 μM to 1 mL of each of mouse plasma and mouse liver microsomal preparations (with and without 1 mM NADPH). Stability assays were run in duplicate and were sampled at 0, 5, 15, 30, 60 and 120 minutes as follows: one hundred microliter aliquots of samples were removed at the specified sampling times, and the reaction was quenched with 400 μL of acetonitrile.
(§3) Samples were analyzed by HPLC-ESI-MS/MS by measuring the peak area of both the starting Example Compound and parent compound (i.e., either Parent Compound A or Parent Compound B) that were created by removal of the Prodrug Moiety (as defined in Section 6 herein).

[2] = Stability in mouse liver microsomal preparations; format: in vitro ADME; conditions: liver microsomes, with and without 1 mM NADPH (not said which), read-out: Mouse Liver Microsomes t1/2
Experimental: as §1, §2, §3

[3] = Experiment 2: femoral vein samples of rats after IV Parent Compound A; format: in vivo, female Sprague Dawley rats; conditions: for [Par. Cmp. A]: listed as Par. Cmp. A
Experimental: Experiment 2. Three female Sprague Dawley rats (215-250 g, Charles River Laboratories) with a catheter implanted surgically in the femoral vein for blood sampling were used in this study. Parent Compound A, solubilized in 3% DMA, 40% PEG300, 12% ethanol, and 45% water by volume, was administered IV at a dose of 2.5 mg/kg in a volume of 2 mL/kg. Femoral blood samples were collected from each animal at 0.083, 0.25, 0.5, 1, 2, 4, and 8 hours following administration of compound and processed for analysis of Parent Compound A concentration.
Pharmacokinetic parameters estimated for Parent Compound A included the maximum observed drug concentration (Cmax), time of maximum observed drug concentration (Tmax), apparent terminal half-life (t1/2), area under the concentration-time curve from time zero to 8 hours postdose (AUC(0-8)), and area under the concentration-time curve extrapolated to infinity (AUC(0-inf)). The bioavailability (% F) of Parent Compound A in portal vein samples relative to IV administration was also estimated.
Plasma samples were analyzed for Example Compound 35 or Parent Compound A concentration using a LC-MS/MS method. All sample runs met standard acceptance criteria for discovery purposes, and were based on a standard curve containing at least 7 points. At least half of quality control samples at each of the three concentrations tested, and two thirds of the entire quality control sample pool, were within 15% of their theoretical value. The r^2 value for each standard curve was ≧0.99. The quantitation range for the Example Compound 35 and Parent Compound A assays was 1 to 100 ng/mL and 5 to 2,500 ng/mL, respectively, using a 0.05 mL sample volume.
The data were entered into the PK software package WinNonlin® version 5.1.1. A complete data check was conducted to verify the accuracy of data entry.
Pharmacokinetic parameters were estimated on median plasma concentrations using extravascular input (PO). Nominal collection times after administration of compound were used for PK analyses. The use of a non-compartmental model provided an adequate fit of the data. Pharmacokinetic parameters estimated for Parent Compound A included the maximum observed drug concentration (Cmax), time of maximum observed drug concentration (Tmax), apparent terminal half-life (t1/2), apparent volume of distribution (Vz obs), apparent clearance (C1 obs), area under the concentration-time curve from time zero to 8 hours postdose of Example Compound 35 […], and area under the concentration-time curve extrapolated to infinity (AUC(0-inf)). Example Compound 35 was detected in only one 0.25 hour hepatic portal vein sample at 1.29 ng/mL. Any Example Compound 35 present in all of the other samples was below the quantitation limit of 1 ng/mL and pharmacokinetic parameters were not determined for those samples. The median PK parameters estimated for Parent Compound A following portal vein sampling of the oral dose of Example Compound 35 or following femoral vein sampling of the intravenous dose of Parent Compound A are given in the Table 5 below. Individual and median concentration of Parent Compound A and Example Compound 35 in hepatic portal vein following oral administration of Example Compound 35 (20 mg/kg) to rats pursuant to Experiment 1 are shown in Table 6 below. Individual and median plasma concentration of Parent Compound A in femoral vein following IV administration of Parent Compound A (2.5 mg/kg) to rats pursuant to Experiment 2 are shown in Table 7 below. FIG. 5 depicts median concentration of Parent Compound A and Example Compound 35 in hepatic portal vein of rats following a single oral dose of Example Compound 35 (20 mg/kg). FIG. 6 depicts median plasma concentration of Parent Compound A following a single IV dose of Parent Compound A (2.5 mg/kg) to rats. […]

[4] = female, Sprague-Dawley, rat, plasma (femoral vein), Parent Cmpd. A 2.5 mg/kg IV, Femoral Vein, median

## O=C(NCc1ccc[n+](COC(=O)c2ccccc2)c1)Nc1ccc(OCCc2ccccc2-c2ccccc2)cc1 [Example 35, 1-[(Benzoyloxy)methyl]-3-{[({4-[2-(biphenyl-2-yl)ethoxy]phenyl}carbamoyl)amino]methyl} pyridinium]
[1]
  half-life at 1 µM: 1.29 h
[2]
  half-life at 1 µM: < 5 min

## O=C(NCc1cccnc1)Nc1ccc(OCCc2ccccc2-c2ccccc2)cc1 [Parent Compound A, 1-{4-[2-(Biphenyl-2-yl)ethoxy]phenyl}-3-(pyridin-3-ylmethyl)urea]
[3]; female, Sprague-Dawley, rat, plasma (femoral vein), iv, 2.5 mg/kg, femoral vein plasma, 0.083 hr after IV Parent Compound A 2.5 mg/kg, read-out: Median [Par. Cmp. A]
  concentration at 0.083 h: 1920 ng/mL
[3]; female, Sprague-Dawley, rat, plasma (femoral vein), iv, 2.5 mg/kg, femoral vein plasma, 0.25 hr after IV Parent Compound A 2.5 mg/kg, individual rats, read-out: [Par. Cmp. A]
  concentration at 0.25 h: 1610 ng/mL
[3]; female, Sprague-Dawley, rat, plasma (femoral vein), iv, 2.5 mg/kg, femoral vein plasma, 0.25 hr after IV Parent Compound A 2.5 mg/kg, read-out: Median [Par. Cmp. A]
  concentration at 0.25 h: 1130 ng/mL
[3]; female, Sprague-Dawley, rat, plasma (femoral vein), iv, 2.5 mg/kg, femoral vein plasma, 0.5 hr after IV Parent Compound A 2.5 mg/kg, individual rats, read-out: [Par. Cmp. A]
  concentration at 0.5 h: 568 ng/mL
[3]; female, Sprague-Dawley, rat, plasma (femoral vein), iv, 2.5 mg/kg, femoral vein plasma, 0.5 hr after IV Parent Compound A 2.5 mg/kg, read-out: Median [Par. Cmp. A]
  concentration at 0.5 h: 720 ng/mL
[3]; female, Sprague-Dawley, rat, plasma (femoral vein), iv, 2.5 mg/kg, femoral vein plasma, 1 hr after IV Parent Compound A 2.5 mg/kg, individual rats, read-out: [Par. Cmp. A]
  concentration at 1 h: 343 ng/mL
[3]; female, Sprague-Dawley, rat, plasma (femoral vein), iv, 2.5 mg/kg, femoral vein plasma, 1 hr after IV Parent Compound A 2.5 mg/kg, read-out: Median [Par. Cmp. A]
  concentration at 1 h: 360 ng/mL
[3]; female, Sprague-Dawley, rat, plasma (femoral vein), iv, 2.5 mg/kg, femoral vein plasma, 2 hr after IV Parent Compound A 2.5 mg/kg, individual rats, read-out: [Par. Cmp. A]
  concentration at 2 h: 136 ng/mL
[3]; female, Sprague-Dawley, rat, plasma (femoral vein), iv, 2.5 mg/kg, femoral vein plasma, 2 hr after IV Parent Compound A 2.5 mg/kg, read-out: Median [Par. Cmp. A]
  concentration at 2 h: 177 ng/mL
[3]; female, Sprague-Dawley, rat, plasma (femoral vein), iv, 2.5 mg/kg, femoral vein plasma, 4 hr after IV Parent Compound A 2.5 mg/kg, read-out: Median [Par. Cmp. A]
  concentration at 4 h: 26.2 ng/mL
[3]; female, Sprague-Dawley, rat, plasma (femoral vein), iv, 2.5 mg/kg, femoral vein plasma, 8 hr after IV Parent Compound A 2.5 mg/kg, individual rats, * = below the quantitation limit of 5 ng/mL, read-out: [Par. Cmp. A]
  concentration at 8 h: 1.98 ng/mL
[3]; female, Sprague-Dawley, rat, plasma (femoral vein), iv, 2.5 mg/kg, femoral vein plasma, 8 hr after IV Parent Compound A 2.5 mg/kg, read-out: Median [Par. Cmp. A]
  concentration at 8 h: 2.1 ng/mL
[3]; [4]
  AUC(0-inf): 1460 ng·h/mL
  Cmax: 1920 ng/mL
  Tmax: 4.2 min
  half-life: 1 h
[3]; female, Sprague-Dawley, rat, plasma (femoral vein), Parent Cmpd. A 2.5 mg/kg IV, Femoral Vein, median, read-out: AUC(0-8)
  AUC(0-t): 1460 ng·h/mL
[3]; femoral vein plasma, 0.083 hr after IV Parent Compound A 2.5 mg/kg, individual rats, 2.5 mg/kg
  [Par. Cmp. A]: 1,303.7 ng/mL and 2,660.1 ng/mL and 1,924.0 ng/mL
[3]; femoral vein plasma, 0.25 hr after IV Parent Compound A 2.5 mg/kg, individual rats, 2.5 mg/kg
  [Par. Cmp. A]: 1,131.8 ng/mL and 878.3 ng/mL
[3]; femoral vein plasma, 0.5 hr after IV Parent Compound A 2.5 mg/kg, individual rats, 2.5 mg/kg
  [Par. Cmp. A]: 1,062.6 ng/mL and 719.5 ng/mL
[3]; femoral vein plasma, 1 hr after IV Parent Compound A 2.5 mg/kg, individual rats, 2.5 mg/kg
  [Par. Cmp. A]: 565.0 ng/mL and 360.4 ng/mL
[3]; femoral vein plasma, 2 hr after IV Parent Compound A 2.5 mg/kg, individual rats, 2.5 mg/kg
  [Par. Cmp. A]: 268.6 ng/mL and 177.2 ng/mL
[3]; femoral vein plasma, 4 hr after IV Parent Compound A 2.5 mg/kg, individual rats, 2.5 mg/kg
  [Par. Cmp. A]: 19.7 ng/mL and 39.7 ng/mL and 26.2 ng/mL
[3]; femoral vein plasma, 8 hr after IV Parent Compound A 2.5 mg/kg, individual rats, * = below the quantitation limit of 5 ng/mL, 2.5 mg/kg
  [Par. Cmp. A]: 2.05* ng/mL and 2.81* ng/mL
